Marks after values point to notes of the source that are not given here.
Columns and labels:
[1] = system: activated human primary PBMC; assay: Flow cytometric forward-side-scatter analysis of viability and proliferation; format: cell-based; settings: extract 50-100 μg/mL; CPT 30 μg/mL
Method: After completion of the chemical analysis, different concentrations of the crude O. affinis cyclotide extract were tested for its anti-proliferative capacity on activated human primary PBMC (FIG. 2).

[2] = system: activated human primary PBMC; settings: kalata B1 1.8-14 μM; CPT 30 μg/mL; melittin up to 1.6 μM
Method: (§1) After cultivation, the cells were assessed in bioassays as described in the text.
The levels of apoptosis were determined using the annexin V-FITC apoptosis detection kit (eBioscience, Frankfurt, Germany) according to the manufacturer's instructions. After annexin V staining, propidium iodide solution (PI; eBioscience) was added and the cells were incubated in the dark, followed by a flow cytometric analysis to determine the amount of apoptosis and necrosis. CPT (30 μg/mL) and Triton-X 100 (0.5%) was used as positive controls for apoptosis and necrosis, respectively.
Cellular apoptotic and necrotic hallmarks were measured by using inter-nucleosomal DNA fragmentation (subG1^+ cells) assay and phosphatidylserine surface analysis through a single and combinatory annexin V and propidium iodide staining. This double staining process allowed the discrimination between viable (annexin^−/PI^−), apoptotic (annexin^+/PI^− and annexin^+/PI^+) or necrotic (annexin^−/PI^+) cells.

[3] = system: IFN-gamma production of activated PBMCs; assay: IFN-gamma secretion of PBMC, ELISA-based FACS; format: cell-based, human; settings: 36 h past stimulation
Method: FIG. 14. IFN-γ secretion by cyclotide-treated PBMC. […] Untreated cells were used as control. Following 24 h or 36 h of cultivation, the cells were restimulated with PMA/Ionomycin for further 6 hour. The amount of IFN-γ was measured in the supernatant of cultured cells using an ELISA-based flow cytometric method. The data are presented as mean and standard deviation (SD) of three independent experiments.
Activated cells were resuspended in 50 μl of medium, transferred into a 96-well plate and treated with 10 μg/ml PHA-L. After incubation for 24 h cells were re-stimulated with PMA (50 ng/ml) und ionomycin (500 ng/ml) for 6 h. Next, the cells were transferred into Eppendorf tubes, centrifuged (5 min, 3000 RPM, 20° C.) und 50 μl of the supernatant was again transferred into new tubes and stored at −20° C. Production of cytokines was measured and quantified using the FlowCytomix™ kit according to manufacturer's instructions.
Therefore it is of interest to determine whether cyclotides only have anti-proliferative effects or also affect the effector function of T-lymphocytes, which would directly relate to changes in the IFN-gamma and TNF-alpha production. Therefore, the production of both cytokines of cyclotide-treated, activated PBMCs at an early time point after PBMC activation was tested.

[4] = Relative insecticidal activity (other assays, Table 2); settings: in vivo
[5] = system: degranulation marker LAMP-1 (CD107a) on activated PBMC; assay: CD107a degranulation analysis; format: cell-based, human; settings: after 36 h; T20K 4 μM, CsA 5 μg/mL
Method: FIG. 16. Degranulation capacity of cyclotide-treated activated human PBMC. […] After 36 hour of cultivation the cells were restimulated with PMA/Ionomycin for 2.5 hours in the presence of a CD107a mAbs and GolgiStop reagent to determine the amount of degranulation by flow cytometry. Representative data are shown in dot plots (A) and in (B) data are presented as mean and standard deviation (SD) of three independent experiments.
Activated cells were grown for 36 h and then treated for re-stimulation with PMA (50 ng/ml) und ionomycin (500 ng/ml) and stained with CD107a PE. After 1 h the reaction was stopped with 2 μl Golgi-Stop (1:10) and incubated for 2.5 h at 37° C. The cells were transferred into a 96-well plate, centrifuged (5 min, 1000 RPM, 20° C.) and washed with 100 μl FACS-buffer. Afterwards, PBMCs were stained with CD8 PE-Cy5 for 15 min at 4° C. and following to wash cycles with FACS-buffer the cells were resuspended in 100 μl, transferred into FACS vials with a total volume of 250 μl and the degranulation was measured by FACS analysis.
After determining the influence of cyclotide treatment on the effector function of PBMCs on the basis of measuring IFN-gamma and TNF-alpha cytokine levels, it is of interest to determine an effect of cyclotides on the degranulation activity. Activation of cytotoxic CD8^+-lymphocytes lead to a release of cytolytic granules, which contain/express lysosomal-associated membrane protein 1 (CD107; LAMP-1). During degranulation, the granule vesicle membranes fuse with the membranes of activated CD8^+-lymphocytes and therefore LAMP-1 can be used as a marker protein for the cytotoxic activity of T-lymphocytes, which can be measured with FACS. After 36 h, 42%±21.4 of the CsA- and 49%±16.8 of the T20K-treated cells contain the degranulation marker LAMP-1 as compared to the control (FIG. 16). This can be interpreted in the way that CsA- and T20K-treated cells have reduced cytotoxicity.

[6] = system: activated human primary PBMC; assay: Anti-proliferative CFSE cell division assay on anti-CD3/CD28-activated PBMC; settings: PBMCs, anti-CD3/28 mAbs, 72 h, cyclotides 1.8-14 μM; n.a. = not active
Method: Human peripheral blood mononuclear cells (PBMC) were isolated from the blood of healthy adult donors obtained from the Blood Transfusion Centre (University Medical Center, Freiburg, Germany). Venous blood was centrifuged on a LymphoPrep™ gradient (density: 1.077 g/cm^3, 20 min, 500×g, 20° C.; Progen, Heidelberg, Germany). Afterwards cells were washed twice with medium and cell viability and concentration was determined using the trypan blue exclusion test. PBMC were cultured in RPMI 1640 medium supplemented with 10% heat-inactivated fetal calf serum (PAA, Coelbe, Germany), 2 mM L-glutamine, 100 U/mL penicillin and […] (all from Invitrogen, Karlsruhe, Germany). The cells were cultured at 37° C. in a humidified incubator with a 5% CO2/95% air atmosphere. All experiments conducted on human material were approved by the Ethics committee of the University of Freiburg.
as §1
For cell proliferation and cell division tracking analysis PBMC were harvested and washed twice in cold PBS and resuspended in PBS at a concentration of 5×10^6 cells/mL. Cells were incubated for 10 min at 37° C. with carboxyfluorescein diacetate succinimidyl ester (CFSE; 5 μM: Sigma-Aldrich, Taufkirchen, Germany). The staining reaction was stopped by washing twice with complete medium. Afterwards, the cell division progress was analysed using flow cytometric analysis.
The anti-proliferative effect of cyclotide mutants/variants was tested according to Example 5. […] Afterwards the cell proliferation was assessed by analysing cell division using flow cytometric-based histogram analysis.

[7] = system: IL-2 surface receptor CD25 on PBMC; assay: IL-2 surface receptor CD25 expression, FACS; format: cell-based, human; settings: cyclotides 4 μM, CsA 5 μg/mL, PHA-L; stimulated untreated PBMCs = 100%
Method: PBMCs were isolated from blood samples of healthy adults that were provided by the transfusion center of the university hospital in Freiburg (Germany). […] The lymphocyte-enriched layer was transferred into a new vessel and washed three times with PBS and centrifuged again (10 min, twice with 300×g and last time with 800 rpm, 20° C.). For the following experiments, the cells were either stained with CFSE or diluted with medium to 4*10^6 cells/ml. Cells were counted in alight microscope using trypan blue staining and a hemocytometer.
(§2) Following purification, PBMCs were equilibrated for 2 h at 37° C. […] This was followed by washing of each well with 100 μl PBS (centrifugation for 5 min, 1000 rpm, 20° C.) and re-suspending the cells in 100 μl medium for further assays.
Activated cells were transferred into a 96-well plate, centrifuged (5 min, 1000 rpm, 20° C.), washed one time with 100 μl FACS-buffer and stained with CD25 PE for 15 min at 4° C. Then cells were washed twice with FCS-buffer and resuspended in 100 μl FACS-buffer, transferred into FACS vials with a total volume of 250 μl and the expression of IL2 surface receptor CD25 was measured by FACS analysis using a FACSCalibur instrument (BD Biosciences).
Amongst other pathways, T-cell proliferation is determined by binding of the cytokine IL-2 to its cell surface receptor. Therefore the influence of cyclotides on the expression of the IL-2 receptor was tested. […] As control substance CsA was used. […] Treatment with V10A yields 114%±12.5, V10K yields 112%±16.3 and T8K yields 114%±17.3 CD25 surface expression after 24 h as compared to the control (FIG. 11B).

nematodes = assay: Relative nematocidal activity (other assays, Table 2); format: in vivo; settings: some cells print two values separated by a slash
PHA-L-stimulated PBMC = assay: Proliferation of PHA-L-stimulated CFSE-labelled PBMC with or without exogenous IL-2; format: cell-based, human; settings: cyclotides 4 μM, CsA 5 μg/mL, 3 day culture; for proliferation with exogenous IL-2: IL-2 10 U/mL
Method: FIG. 13. Proliferation capacity of cyclotide-treated PBMC in the presence of exogenous IL-2. […] The cells were cultured without exogenous IL-2 (10 U/mL) (A and B) or in the presence of IL-2 (C and D). The CFSE-labelled cells were measured after a 3 day culture period by flow cytometry and representative data are presented in dot plots (A and C). Data are presented as mean and standard deviation (SD) of three independent experiments.
as §2
Purified PBMCs (5*10^6 cells/ml) were incubated with […] of the fluorescent dye CFSE (5-carbofluoreszenein-ciacetat-succinylester) for 10 min at 37° C. The reaction was stopped using medium, cells were washed one time with medium by centrifugation (10 min, 300×g, 20° C.) and diluted with medium to 4*10^6 cells/ml.

[8] = Relative hemolytic activity (other assays, Table 2); format: cell-based; settings: some values given for the Ala mutant

Compound	dead cells / harm to cells (forward-side-scatter) [1]	induction of apoptosis [2]	IFN-gamma production as compared to the control, 36 h [3]	Relative activity in other assays (fold difference to kB1): insecticidal [4]	cells containing the degranulation marker LAMP-1 as compared to the control [5]	IC50 (μM) ± STDEV, inhibition of PBMC proliferation [6]	CD25 expression after 48 h [7]	CD25 surface expression after 24 hours [7]	Relative activity in other assays (fold difference to kB1): nematocidal (nematodes)	proliferation with exogenous IL-2 (PHA-L-stimulated PBMC)	proliferation as compared to the control cells, without exogenous IL-2 (PHA-L-stimulated PBMC)	Relative activity in other assays (fold difference to kB1): hemolytic [8]
CC[C@@]1(O)C(=O)OCc2c1cc1n(c2=O)Cc2cc3ccccc3nc2-1 [camptothecin, reference compound]	induced a high proportion of dead cells	significantly increased the fractions of these cells	–	–	–	–	–	–	–	–	–	–
kalata B1 mutant GLPVCGEKCVGGTCNTPGCTCSWPVCTRN (SEQ ID No. 8) [Kalata B1 T8K, Kalata T8K]	–	–	did not induce significant changes in the level of IFN-gamma	0.2 fold difference to kB1	no influence on the degranulation activity	not active (n.a.)^b	no significant change in receptorexpression	114%±17.3	<0.2 fold difference to kB1	did not change the effect on proliferation	no effect on the proliferation	–
kalata B1 mutant GLPVCGETCAGGTCNTPGCTCSWPVCTRN (SEQ ID No. 9) [Kalata V10A]	–	–	did not induce significant changes in the level of IFN-gamma	1.1 fold difference to kB1	–	–	no significant change in receptorexpression	114%±12.5	–	did not change the effect on proliferation	no effect on the proliferation	0.5 fold difference to kB1

— US10357537B2, “Cyclotides as immunosuppressive agents” (priority 2011, dated 2019)
